# From patent publication US9839215B2, “Methods for increasing oil palm yield” (Valent BioSciences Corporation, priority 2015, dated 2017)
# Experiments:
# oil palm = assay: Field study of cumulative loose fruit (CLF) and cumulative loose mass (CLM) after one-time bunch-directed spray; format: in vivo, oil palm (Compact×Ghana plants); settings: one spray 100 mL/bunch; for Cumulative Loose Mass / % Difference with UTC (Cumulative Loose Fruit) / % Difference with UTC (Cumulative Loose Mass): 14 days; for % Difference with UTC (Cumulative Loose Fruit) / % Difference with UTC (Cumulative Loose Mass): positive = reduction; for Cumulative Loose Fruit: counted for 14 days
# Text: Plant Material: A field study was executed in a plantation in Costa Rica to compare the effects of one-time bunch-directed applications of: (1) water sprayed untreated control (UTC); (2) AVG-HCl at 500 ppm (59.5 g) active ingredient (a.i.); (3) AVG-HCl at 125 ppm (14.9 g) a.i.; (4) 200 ppm (0.2 g) a.i. of NAA; (5) AVG-HCl at 500 ppm (59.5 g) a.i. and 200 ppm (0.2 g) a.i. of NAA; and (6) AVG-HCl at 125 ppm (14.9 g) a.i. and 200 ppm (0.2 g) a.i. of NAA. In this study, AVG was provided in a formulation as AVG-HCl. NAA was provided as the sodium salt at concentrations of 20% and 3.5%. For each treatment, 24 palms per treatment were randomly selected covering about 15 hectares. The palms were Compact×Ghana plants and 2.5 to 3 years old. Treatment Application: A manual DEA-2000 sprayer was used to spray all treatments (100 mL/bunch) to bunches with 1 to 3 loose fruits. The time required to spray each bunch was about 11 to 20 seconds depending on the sprayer. Sprays were conducted only once per bunch. Twelve bunches were sprayed on Oct. 28, 2014 and the other 12 on Nov. 4, 2014. Cumulative loose fruit (CLF) and cumulative loose mass (CLM) counts were determined at daily basis with exception of Sundays for 14 days in order to objectively quantify fruit abscission. An electronic balance was used to weight out all fruit. All loose fruit on the bunch, branches and on the ground was counted and weighed.
# oil palms = assay: Oil yield of oil palms after application before harvest of the fruit; format: in vivo, oil palm; settings: applied before harvest of the fruit
# oil palm fruit = settings: preharvest application to attached bunches of oil palm fruit; cited from earlier work
compound,measurement,setting,value
"NCCO/C=C/[C@H](N)C(=O)O (stereo in doubt) [AVG, [S]-trans-2-amino-4-(2-aminoethoxy)-3-butenoic acid]",Cumulative Loose Mass,oil palm; AVG-HCl 125 ppm (14.9 g) a.i.,2028 g
same,% Difference with UTC (Cumulative Loose Fruit),oil palm; AVG-HCl 125 ppm (14.9 g) a.i.,3.9%
same,% Difference with UTC (Cumulative Loose Mass),oil palm; AVG-HCl 125 ppm (14.9 g) a.i.,−5.4%
same,Cumulative Loose Fruit,oil palm; AVG-HCl 125 ppm (14.9 g) a.i.,160.7
same,Cumulative Loose Mass,oil palm; AVG-HCl 500 ppm (59.5 g) a.i.,1154 g
same,% Difference with UTC (Cumulative Loose Fruit),oil palm; AVG-HCl 500 ppm (59.5 g) a.i.,48.5%
same,% Difference with UTC (Cumulative Loose Mass),oil palm; AVG-HCl 500 ppm (59.5 g) a.i.,40%
same,Cumulative Loose Fruit,oil palm; AVG-HCl 500 ppm (59.5 g) a.i.,86.1
"O=C(O)Cc1cccc2ccccc12 [NAA, 1-naphthaleneacetic acid]",oil yield of oil palms,oil palms,increases the oil yield
same,Cumulative Loose Mass,oil palm; NAA 200 ppm (0.2 g) a.i.,1501 g
same,% Difference with UTC (Cumulative Loose Fruit),oil palm; NAA 200 ppm (0.2 g) a.i.,31.3%
same,% Difference with UTC (Cumulative Loose Mass),oil palm; NAA 200 ppm (0.2 g) a.i.,22%
same,Cumulative Loose Fruit,oil palm; NAA 200 ppm (0.2 g) a.i.,114.8
"O=P(O)(O)CCCl [ethephon, 2-chloroethyl phosphonic acid]",increase of oil content,oil palm fruit,7%
C=C1C[C@]23C[C@@]1(O)CC[C@H]2[C@@]12C=C[C@H](O)[C@@](C)(C(=O)O1)[C@H]2[C@@H]3C(=O)O [gibberellic acid],oil yield of oil palms,oil palms,inconsistent and unsatisfactory oil yields
